# Data taken from ChEMBL document CHEMBL5390209, “Spinosyn A and Its Derivative Inhibit Colorectal Cancer Cell Growth via the EGFR Pathway” (J Nat Prod, 2023).
# Calls of active or inactive are those of the source. No cut-off for these calls is given here.
# Experiments:
# [1] = tested on: HT-29; assay: Antitumor activity against human HT-29 cells xenografted Balb/c mouse assessed as inhibited tumor growth at 2.5 mg/kg/day, ip administrated for every other day and measured after 6 days; assay type: functional, organism-based; conditions: time 6.0 day
# [2] = tested on: HT-29; assay: Inhibition of HER2 in human HT-29 cells xenografted in BALB/c nude mouse assessed as HER2 protein level in tumor at 2.5 mg/kg/day, ip administrated for every other day and measured after 28 days by Western blotting analysis; assay type: functional, organism-based; conditions: time 28.0 day
# [3] = Toxicity in human HT-29 cells xenografted Balb/c mouse assessed as change in spleen pathology at 2.5 mg/kg/day, ip administrated for every other day and measured after 28 days; assay type: organism-based; conditions: in vivo, 672 h, time 28 day
# [4] = tested on: HT-29; assay: Inhibition of colony formation in HER2 knockdown human HT-29 cells at 0.75 uM incubated for 14 days by crystal violet staining based colony formation assay; assay type: functional, cell-based; conditions: time 14.0 day
# [5] = Toxicity in human HT-29 cells xenografted Balb/c mouse assessed as change in kidney pathology at 2.5 mg/kg/day, ip administrated for every other day and measured after 28 days; assay type: organism-based; conditions: in vivo, 672 h, time 28 day
# [6] = tested on: HT-29; assay: Inhibition of colony formation in double EGFR/HER2 knockdown human HT-29 cells at 0.75 uM incubated for 14 days by crystal violet staining based colony formation assay; assay type: functional, cell-based; conditions: time 14.0 day
# [7] = target: Epidermal growth factor receptor (Homo sapiens) (UniProt P00533); assay: Inhibition of EGFR in human HT-29 cells assessed as reduction in MEK1/2 phosphorylation level at 0.5 to 2 uM incubated for 24 hrs by Western blotting analysis; assay type: cell-based; conditions: dose 0.5-2 µM
# Epidermal growth factor receptor (Homo sapiens), sequence (P00533 whole entry): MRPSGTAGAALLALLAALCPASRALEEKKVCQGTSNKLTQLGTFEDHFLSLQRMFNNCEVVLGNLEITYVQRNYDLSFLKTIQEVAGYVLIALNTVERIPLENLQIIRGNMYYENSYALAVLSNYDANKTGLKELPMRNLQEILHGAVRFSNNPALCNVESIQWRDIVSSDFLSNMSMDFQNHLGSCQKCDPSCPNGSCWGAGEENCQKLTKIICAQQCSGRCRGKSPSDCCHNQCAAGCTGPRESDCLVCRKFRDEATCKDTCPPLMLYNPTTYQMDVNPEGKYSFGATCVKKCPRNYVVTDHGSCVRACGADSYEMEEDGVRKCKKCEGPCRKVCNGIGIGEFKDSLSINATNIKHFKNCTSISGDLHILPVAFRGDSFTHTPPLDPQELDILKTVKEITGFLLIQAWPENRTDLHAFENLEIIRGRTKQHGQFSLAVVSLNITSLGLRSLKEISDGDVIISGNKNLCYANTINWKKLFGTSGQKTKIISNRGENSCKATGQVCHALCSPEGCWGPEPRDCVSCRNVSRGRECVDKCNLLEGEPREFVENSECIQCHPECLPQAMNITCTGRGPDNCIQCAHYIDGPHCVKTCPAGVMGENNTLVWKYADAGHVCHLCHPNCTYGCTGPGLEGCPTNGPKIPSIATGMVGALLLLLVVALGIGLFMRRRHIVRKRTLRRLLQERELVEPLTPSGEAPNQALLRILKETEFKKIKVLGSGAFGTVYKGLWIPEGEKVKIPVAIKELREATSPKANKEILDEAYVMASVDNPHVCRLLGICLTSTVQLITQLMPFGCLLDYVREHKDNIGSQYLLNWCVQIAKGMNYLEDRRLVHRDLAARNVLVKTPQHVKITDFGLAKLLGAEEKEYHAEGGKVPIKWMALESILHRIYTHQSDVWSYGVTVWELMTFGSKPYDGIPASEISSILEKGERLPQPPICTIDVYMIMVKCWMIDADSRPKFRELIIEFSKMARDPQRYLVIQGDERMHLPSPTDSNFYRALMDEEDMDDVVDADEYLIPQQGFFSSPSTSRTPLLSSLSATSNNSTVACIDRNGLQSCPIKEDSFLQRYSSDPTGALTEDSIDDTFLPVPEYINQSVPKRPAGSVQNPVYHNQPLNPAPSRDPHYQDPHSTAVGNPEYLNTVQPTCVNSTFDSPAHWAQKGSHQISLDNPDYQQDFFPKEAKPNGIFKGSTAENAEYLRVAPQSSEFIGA
# [8] = Toxicity in human HT-29 cells xenografted Balb/c mouse assessed as change in body weight at 2.5 mg/kg/day, ip administrated for every other day and measured after 6 days; assay type: organism-based; conditions: in vivo, 144 h, time 6 day
# [9] = target: Epidermal growth factor receptor (Homo sapiens) (UniProt P00533); assay: Inhibition of EGFR in human HT-29 cells assessed as reduction in MEK1/2 phosphorylation level at 2 uM by Western blotting analysis; assay type: cell-based; conditions: time 3-15 hrs, TDE = time-dependent effect
# [10] = target: Receptor tyrosine-protein kinase erbB-2 (Homo sapiens) (UniProt P04626); assay: Inhibition of HER2 in human HT-29 cells at 2 uM by Western blotting analysis; assay type: cell-based; conditions: time 3-15 hrs, TDE = time-dependent effect
# Receptor tyrosine-protein kinase erbB-2 (Homo sapiens), sequence (P04626 whole entry): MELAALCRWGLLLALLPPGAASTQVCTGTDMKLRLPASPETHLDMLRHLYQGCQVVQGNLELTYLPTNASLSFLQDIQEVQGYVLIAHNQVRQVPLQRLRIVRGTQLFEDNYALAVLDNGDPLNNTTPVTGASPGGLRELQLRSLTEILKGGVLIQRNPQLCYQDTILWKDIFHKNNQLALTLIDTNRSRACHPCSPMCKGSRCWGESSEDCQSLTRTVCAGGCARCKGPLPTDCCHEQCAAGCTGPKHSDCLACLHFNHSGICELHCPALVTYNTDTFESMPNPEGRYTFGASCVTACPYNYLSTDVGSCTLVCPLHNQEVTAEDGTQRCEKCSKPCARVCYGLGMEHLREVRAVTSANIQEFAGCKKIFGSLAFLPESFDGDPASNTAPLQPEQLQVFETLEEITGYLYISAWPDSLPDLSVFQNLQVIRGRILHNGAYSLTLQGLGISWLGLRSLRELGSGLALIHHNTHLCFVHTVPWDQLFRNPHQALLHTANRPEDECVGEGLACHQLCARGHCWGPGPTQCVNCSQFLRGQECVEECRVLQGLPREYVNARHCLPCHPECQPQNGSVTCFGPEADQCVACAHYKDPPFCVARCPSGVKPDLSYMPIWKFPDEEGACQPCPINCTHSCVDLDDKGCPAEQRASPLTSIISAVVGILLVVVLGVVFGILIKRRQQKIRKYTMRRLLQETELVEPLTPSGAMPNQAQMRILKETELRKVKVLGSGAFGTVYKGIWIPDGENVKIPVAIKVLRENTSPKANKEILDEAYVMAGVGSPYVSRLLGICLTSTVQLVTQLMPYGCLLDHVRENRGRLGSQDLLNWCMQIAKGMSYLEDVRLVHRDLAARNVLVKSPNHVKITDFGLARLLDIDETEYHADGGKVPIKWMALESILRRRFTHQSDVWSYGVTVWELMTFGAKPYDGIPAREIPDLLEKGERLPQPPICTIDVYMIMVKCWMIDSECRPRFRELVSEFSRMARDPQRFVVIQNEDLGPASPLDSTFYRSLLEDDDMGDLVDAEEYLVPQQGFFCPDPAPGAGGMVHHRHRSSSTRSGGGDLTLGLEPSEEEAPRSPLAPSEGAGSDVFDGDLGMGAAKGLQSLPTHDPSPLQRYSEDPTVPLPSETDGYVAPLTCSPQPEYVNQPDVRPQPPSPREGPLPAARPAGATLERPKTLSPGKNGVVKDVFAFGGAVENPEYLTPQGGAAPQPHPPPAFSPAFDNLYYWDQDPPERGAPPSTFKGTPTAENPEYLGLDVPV
# [11] = target: Epidermal growth factor receptor (Homo sapiens) (UniProt P00533); assay: Inhibition of EGFR in human HT-29 cells assessed as reduction in Erk1/2 phosphorylation level at 2 uM by Western blotting analysis; assay type: cell-based; conditions: time 3-15 hrs, TDE = time-dependent effect
# [12] = tested on: HT-29; assay: Inhibition of EGFR in human HT-29 cells xenografted in BALB/c nude mouse assessed as EGFR protein level in tumor at 2.5 mg/kg/day, ip administrated for every other day and measured after 28 days by Western blotting analysis; assay type: functional, organism-based; conditions: time 28.0 day
# [13] = tested on: DLD-1; assay: Inhibition of colony formation in human DLD-1 cells at 0.75 uM incubated for 14 days by crystal violet staining based colony formation assay; assay type: functional, cell-based; conditions: time 14.0 day
# [14] = tested on: HT-29; assay: Antitumor activity against human HT-29 cells xenografted Balb/c mouse assessed as reduction in Ki67 expression level at 2.5 mg/kg/day, ip administrated for every other day and measured after 28 days by immunohistochemistry staining method; assay type: functional, organism-based; conditions: time 28.0 day
# [15] = target: Epidermal growth factor receptor (Homo sapiens) (UniProt P00533); assay: Inhibition of EGFR in human HT-29 cells assessed as reduction in STAT3 phosphorylation level at 2 uM by Western blotting analysis; assay type: cell-based; conditions: time 3-15 hrs, TDE = time-dependent effect
# [16] = tested on: SW480; assay: Inhibition of colony formation in human SW480 cells at 0.75 uM incubated for 14 days by crystal violet staining based colony formation assay; assay type: functional, cell-based; conditions: time 14.0 day
# [17] = tested on: LoVo; assay: Inhibition of colony formation in human LoVo cells at 0.75 uM incubated for 14 days by crystal violet staining based colony formation assay; assay type: functional, cell-based; conditions: time 14.0 day
# [18] = target: Epidermal growth factor receptor (Homo sapiens) (UniProt P00533); assay: Inhibition of EGFR in human SW480 cells assessed as reduction in STAT3 phosphorylation level at 0.5 to 2 uM incubated for 24 hrs by Western blot analysis; assay type: cell-based; conditions: dose 0.5-2 µM
# [19] = target: Epidermal growth factor receptor (Homo sapiens) (UniProt P00533); assay: Inhibition of EGFR in human HT-29 cells assessed as reduction in Erk1/2 phosphorylation level at 15 uM by Western blot analysis; assay type: cell-based; conditions: time 3-15 hrs, TDE = time-dependent effect
# [20] = target: Epidermal growth factor receptor (Homo sapiens) (UniProt P00533); assay: Inhibition of EGFR in human SW480 cells assessed as reduction in STAT3 phosphorylation level at 3.75 to 15 uM incubated for 24 hrs by Western blot analysis; assay type: cell-based; conditions: dose 3.75-15 µM
# [21] = tested on: HT-29; assay: Inhibition of EGFR in human HT-29 cells xenografted in BALB/c nude mouse assessed as EGFR protein level in tumor at 5 mg/kg/day, ip administrated for every other day and measured after 28 days by Western blotting analysis; assay type: functional, organism-based; conditions: time 28.0 day
# [22] = tested on: HT-29; assay: Inhibition of HER2 in human HT-29 cells xenografted in BALB/c nude mouse assessed as reduction in HER2 protein expression level at 5 mg/kg/day, ip administrated for every other day and measured after 28 days by immunohistochemistry staining based analysis; assay type: functional, organism-based; conditions: time 28.0 day
# [23] = target: Epidermal growth factor receptor (Homo sapiens) (UniProt P00533); assay: Inhibition of EGFR in human SW480 cells assessed as reduction in MEK1/2 phosphorylation level at 3.75 to 15 uM incubated for 24 hrs by Western blot analysis; assay type: cell-based; conditions: dose 3.75-15 µM
# [24] = tested on: HT-29; assay: Inhibition of HER2 in human HT-29 cells xenografted in BALB/c nude mouse assessed as HER2 protein level in tumor at 5 mg/kg/day, ip administrated for every other day and measured after 28 days by Western blotting analysis; assay type: functional, organism-based; conditions: time 28.0 day
# [25] = target: Receptor tyrosine-protein kinase erbB-2 (Homo sapiens) (UniProt P04626); assay: Inhibition of HER2 in human HT-29 cells at 15 uM by Western blot analysis; assay type: cell-based; conditions: time 3-15 hrs, TDE = time-dependent effect
# [26] = Toxicity in human HT-29 cells xenografted Balb/c mouse assessed as change in liver pathology at 5 mg/kg/day, ip administrated for every other day and measured after 28 days; assay type: organism-based; conditions: in vivo, 672 h, time 28 day
# [27] = tested on: DLD-1; assay: Inhibition of colony formation in human DLD-1 cells at 6 uM incubated for 14 days by crystal violet staining based colony formation assay; assay type: functional, cell-based; conditions: time 14.0 day
# [28] = tested on: HT-29; assay: Antitumor activity against human HT-29 cells xenografted Balb/c mouse assessed as reduction in tumor cell density at 5 mg/kg/day, ip administrated for every other day and measured after 28 days by Hematoxylin and Eosin staining based method; assay type: functional, organism-based; conditions: time 28.0 day
# [29] = tested on: HT-29; assay: Inhibition of colony formation in HER2 knockdown human HT-29 cells at 6 uM incubated for 14 days by crystal violet staining based colony formation assay; assay type: functional, cell-based; conditions: time 14.0 day
# [30] = target: Epidermal growth factor receptor (Homo sapiens) (UniProt P00533); assay: Inhibition of EGFR in human SW480 cells assessed as reduction in Erk1/2 phosphorylation level at 3.75 to 15 uM incubated for 24 hrs by Western blot analysis; assay type: cell-based; conditions: dose 3.75-15 µM
# [31] = tested on: HT-29; assay: Inhibition of colony formation in double EGFR/HER2 knockdown human HT-29 cells at 6 uM incubated for 14 days by crystal violet staining based colony formation assay; assay type: functional, cell-based; conditions: time 14.0 day
# [32] = Toxicity in human HT-29 cells xenografted Balb/c mouse assessed as change in heart pathology at 5 mg/kg/day, ip administrated for every other day and measured after 28 days; assay type: organism-based; conditions: in vivo, 672 h, time 28 day
# [33] = target: Epidermal growth factor receptor (Homo sapiens) (UniProt P00533); assay: Inhibition of EGFR in human HT-29 cells assessed as reduction in MEK1/2 phosphorylation level at 3.75 to 15 uM incubated for 24 hrs by Western blotting analysis; assay type: cell-based; conditions: dose 3.75-15 µM
# [34] = tested on: HT-29; assay: Antitumor activity against human HT-29 cells xenografted Balb/c mouse assessed as inhibited tumor growth at 5 mg/kg/day, ip administrated for every other day and measured after 6 days; assay type: functional, organism-based; conditions: time 6.0 day
# [35] = target: Epidermal growth factor receptor (Homo sapiens) (UniProt P00533); assay: Inhibition of EGFR in human HT-29 cells assessed as reduction in STAT3 phosphorylation level at 15 uM by Western blot analysis; assay type: cell-based; conditions: time 3-15 hrs, TDE = time-dependent effect
smiles,measurement,setting,value
CC[C@H]1CCC[C@H](O[C@H]2CC[C@H](N(C)CC(O)CN3CCNCC3)[C@@H](C)O2)[C@@H](C)C(=O)C2=C[C@@H]3[C@@H](C=C[C@@H]4C[C@@H](O[C@@H]5O[C@@H](C)[C@H](OC)[C@@H](OC)[C@H]5OC)C[C@@H]34)[C@@H]2CC(=O)O1 (stereo not given in full),inhibition,[1],Active
same,inhibition,[2],Active
same,Activity,[3],Non-Toxic
same,Activity,[4],inactive
same,Activity,[5],Non-Toxic
same,Activity,[6],inactive
same,inhibition,[7],Active
same,Activity,[8],Non-Toxic
same,inhibition,[9],Tde
same,inhibition,[10],Tde
same,inhibition,[11],Tde
same,inhibition,[12],Active
same,inhibition,[13],Active
same,Activity,[14],Active
same,inhibition,[15],Tde
same,inhibition,[16],Active
same,inhibition,[17],Active
same,inhibition,[18],Active
CC[C@H]1CCC[C@H](O[C@H]2CC[C@H](N(C)C)[C@@H](C)O2)[C@@H](C)C(=O)C2=C[C@@H]3[C@@H](C=C[C@@H]4C[C@@H](O[C@@H]5O[C@@H](C)[C@H](OC)[C@@H](OC)[C@H]5OC)C[C@@H]34)[C@@H]2CC(=O)O1 [SPINOSYN A],inhibition,[19],Tde
same,inhibition,[20],Active
same,inhibition,[21],Active
same,inhibition,[22],Active
same,inhibition,[23],Active
same,inhibition,[24],Active
same,inhibition,[25],Tde
same,Activity,[26],Non-Toxic
same,inhibition,[27],Active
same,Activity,[28],Active
same,Activity,[29],inactive
same,inhibition,[30],Active
same,Activity,[31],inactive
same,Activity,[32],Non-Toxic
same,inhibition,[33],Active
same,inhibition,[34],Active
same,inhibition,[35],Tde
